Data as given in patent EP3117830A1, “ANTIBACTERIAL PEPTIDES, AND USES THEREOF” (Nuritas Limited, priority 2015, dated 2017).
Like-named read-outs stand apart in the source and are kept apart here. No end group written: not given here.

Assays:
E. coli ATCC 25922 [1] = assay: microbe, parasite or virus in culture; details: Escherichia coli
A. baumannii ATCC 19606 = assay: microbe, parasite or virus in culture; details: Acinetobacter baumannii
MRSA ATCC 43300 = assay: microbe, parasite or virus in culture; details: Staphylococcus aureus, ATCC43300|MRSA
E. coli ATCC 25922 [2] = assay type: cell-based
Description: Antibacterial activity testing (in solid media).

Molecule | zone of inhibition at 64 µg/mL (E. coli ATCC 25922 [1]; ATCC25922, read-out: Inhibition zone diameter (mm) E. coli ATCC 25922 Rep 1) | zone of inhibition at 64 µg/mL (E. coli ATCC 25922 [1]; ATCC25922, read-out: Inhibition zone diameter (mm) E. coli ATCC 25922 Rep 2) | zone of inhibition at 64 µg/mL (E. coli ATCC 25922 [1]; ATCC25922, read-out: Inhibition zone diameter (mm) E. coli ATCC 25922 Rep 3) | zone of inhibition at 64 µg/mL (A. baumannii ATCC 19606; ATCC19606, read-out: Inhibition zone diameter (mm) A. baumannii ATCC 19606 Rep 1) | zone of inhibition at 64 µg/mL (A. baumannii ATCC 19606; ATCC19606, read-out: Inhibition zone diameter (mm) A. baumannii ATCC 19606 Rep 2) | zone of inhibition at 64 µg/mL (A. baumannii ATCC 19606; ATCC19606, read-out: Inhibition zone diameter (mm) A. baumannii ATCC 19606 Rep 3) | zone of inhibition at 64 µg/mL (MRSA ATCC 43300; read-out: Inhibition zone diameter (mm) MRSA ATCC 43300 Rep 1) | zone of inhibition at 64 µg/mL (MRSA ATCC 43300; read-out: Inhibition zone diameter (mm) MRSA ATCC 43300 Rep 2) | zone of inhibition at 64 µg/mL (MRSA ATCC 43300; read-out: Inhibition zone diameter (mm) MRSA ATCC 43300 Rep 3) | inhibition zone (E. coli ATCC 25922 [2])
O=C(O)c1cn(C2CC2)c2cc(N3CCNCC3)c(F)cc2c1=O [CIP, Ciprofloxacin] | 42 mm | 40 mm | 42 mm | 27 mm | 28 mm | 27 mm | 27 mm | 28 mm | 29 mm | –
LNSQKFPILNLVQLSATR [I_87_SF] | – | – | – | – | – | – | – | – | – | 9-10 mm
